Each structure is given as a SMILES string.

The target of this experiment is T1, KRAS G12C 1-169, his-tagged protein, GDP-loaded (Homo sapiens, UniProt P01116, G12C).
T1 construct: KRAS G12C 1-169, his-tagged protein, GDP-loaded; His tag
Description: Biochemical assay: covalent modification of KRAS G12C, analysed by mass spectrometry (RapidFire/TOF or Q-Exactive). Also: time not given here. Format: binding. To be noted: Modification activity, modification percentage from MS peak intensities. A digest of the protocol: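 GDP-loaded His-tagged KRAS G12C 1-169 (2 μM or 0.5 μM in 20 mM Hepes, 150 mM NaCl, 1 mM MgCl2) reacted with compound at 32 μM or 8 μM final (2% DMSO) for a set time, then quenched with formic acid. Percent covalent modification from deconvoluted intact-protein MS peak intensities (RapidFire/TOF or LC-Q Exactive).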
On to `C=CC(=O)N1CC2(CCN(c3nc(OC[C@@H]4CCCN4C)nc(-c4ccccc4-c4cn[nH]c4)c3C#N)C2)C1` [Compound I-107, (S)-4-(2-(1H-pyrazol-4-yl)phenyl)-6-(2-acryloyl-2,6-diazaspiro[3.4]octan-6-yl)-2-((1-methylpyrrolidin-2-yl)methoxy)pyrimidine-5-carbonitrile], for which the Binding % result is “+ (+ indicates binding activity greater than 0% and up to 50%)”.
Take `C=CC(=O)N1CC2(CCN(c3nc(OC[C@@H]4CCCN4C)nc(-c4c(C)ccc5[nH]nc(N)c45)c3C#N)C2)C1` [Compound I-108, 4-(2-acryloyl-2,6-diazaspiro[3.4]octan-6-yl)-6-(3-amino-5-methyl-1H-indazol-4-yl)-2-(((S)-1-methylpyrrolidin-2-yl)methoxy)pyrimidine-5-carbonitrile]: the Binding % entry is “++ (++ indicates binding activity from 50 to 85%)”.
The entry for `C=CC(=O)N1CC2(CCN(c3nc(N4CCOC(c5ccccc5)C4)nc(-c4c(C)ccc5[nH]ncc45)c3C#N)C2)C1` (stereo not drawn) [Compound I-109, 4-(2-acryloyl-2,6-diazaspiro[3.4]octan-6-yl)-6-(5-methyl-1H-indazol-4-yl)-2-(2-phenylmorpholino)py-rimidine-5-carbonitrile] is “++ (++ indicates binding activity from 50 to 85%)”; for `C=CC(=O)N1CC2(CCN(c3nc(N4CCCC(N(C)C)C4)nc(-c4c(C)ccc5[nH]ncc45)c3C#N)C2)C1` (stereo not drawn) [Compound I-110, 4-(2-acryloyl-2,6-diazaspiro[3.4]octan-6-yl)-2-(3-(dimethylamino)piperi-din-1-yl)-6-(5-methyl-1H-indazol-4-yl)pyrimidine-5-carbonitrile] it is “+++ (+++ indicates binding activity greater than 85%)”; for `C=CC(=O)N1CC2(CCN(c3nc(N4CCN(C)CC4=O)nc(-c4c(C)ccc5[nH]ncc45)c3C#N)C2)C1` [Compound I-111, 4-(2-acryloyl-2,6-diazaspiro[3.4]octan-6-yl)-6-(5-methyl-1H-indazol-4-yl)-2-(4-methyl-2-oxopiperazin-1-yl)pyrimidine-5-carbonitrile] it is “+ (+ indicates binding activity greater than 0% and up to 50%)”.
As for `C=CC(=O)N1CC2(CCN(c3nc(N4CCC5(CC4)CN(C)C5)nc(-c4c(C)ccc5[nH]ncc45)c3C#N)C2)C1` [Compound I-112, 4-(2-acryloyl-2,6-diazaspiro[3.4]octan-6-yl)-6-(5-methyl-1H-indazol-4-yl)-2-(2-methyl-2,7-diazaspiro[3.5]nonan-7-yl)pyrimidine-5-carbonitrile], the entry is “+++ (+++ indicates binding activity greater than 85%)”; as for `C=CC(=O)N1CC2(CCN(c3nc(OCc4ccccn4)nc(-c4cccc5ccccc45)c3C#N)C2)C1` [Compound I-113, 4-(2-acryloyl-2,6-diazaspiro[3.4]octan-6-yl)-6-(naphthalen-1-yl)-2-(pyridin-2-ylmethoxy)pyrimidine-5-carbonitrile], “+ (+ indicates binding activity greater than 0% and up to 50%)”.
The entry for `C=CC(=O)N1CC2(CCN(c3nc(OCc4ccccn4)nc(-c4cc(O)cc5ccccc45)c3C#N)C2)C1` [Compound I-114, 4-(2-acryloyl-2,6-diazaspiro[3.4]octan-6-yl)-6-(3-hydroxynaphthalen-1-yl)-2-(pyridin-2-ylmethoxy)pyrimidine-5-carbonitrile] is “+++ (+++ indicates binding activity greater than 85%)”.
On to `C=CC(=O)N1CC2(CCN(c3nc(OC[C@@H]4CCCN4C)nc(-c4cc(-c5cn[nH]c5)ccc4F)c3C#N)C2)C1` [Compound I-115, (S)-4-(2-acryloyl-2,6-diazaspiro[3.4]octan-6-yl)-6-(2-fluoro-5-(1H-pyrazol-4-yl)phenyl)-2-((1-methylpyrrolidin-2-yl)methoxy)pyrimidine-5-carbonitrile], for which the Binding % entry was “+ (+ indicates binding activity greater than 0% and up to 50%)”.
`C=CC(=O)N1CC2(CCN(c3nc(OC[C@H]4CCN(C)C4)nc(-c4c(C)ccc5[nH]ncc45)c3C#N)C2)C1` [Compound I-116, 4-(2-acryloyl-2,6-diazaspiro[3.4]octan-6-yl)-6-(5-methyl-1H-indazol-4-yl)-2-(((S)-1-methylpyrrolidin-3-yl)methoxy)pyrimidine-5-carbonitrile]: the Binding % entry is given as “++ (++ indicates binding activity from 50 to 85%)”.
As for `C=CC(=O)N1CC2(CCN(c3nc(OC[C@@H]4COCCN4C)nc(-c4c(C)ccc5[nH]ncc45)c3C#N)C2)C1` [Compound I-117, 4-(2-acryloyl-2,6-diazaspiro[3.4]octan-6-yl)-6-(5-methyl-1H-indazol-4-yl)-2-(((S)-4-methylmorpholin-3-yl)methoxy)pyrimidine-5-carbonitrile], the entry is “++ (++ indicates binding activity from 50 to 85%)”; as for `C=CC(=O)N1CC2(CCN(c3nc(N4CCOCC4)nc(-c4c(C)ccc5[nH]ncc45)c3F)C2)C1` [Compound I-118, 1-(6-(5-fluoro-6-(5-methyl-1H-indazol-4-yl)-2-morpholinopyrimidin-4-yl)-2,6-diazaspiro[3.4]octan-2-yl)prop-2-en-1-one], “++ (++ indicates binding activity from 50 to 85%)”; as for `C=CC(=O)N1CC2(CCN(c3nc(N4CCOCC4)nc(-c4c(F)ccc5cnn(C)c45)c3C#N)C2)C1` [Compound I-119, 4-(2-acryloyl-2,6-diazaspiro[3.4]octan-6-yl)-6-(6-fluoro-1-methyl-1H-indazol-7-yl)-2-morpholinopyrimidine-5-carbontrile], “++ (++ indicates binding activity from 50 to 85%)”.
The entry for `C=CC(=O)N1CC2(CCN(c3nc(N4CCOCC4)nc(-c4c(F)ccc5cnn(C6CC6)c45)c3C#N)C2)C1` [Compound I-120, 4-(2-acryloyl-2,6-diazaspiro[3.4]octan-6-yl)-6-(1-cyclopropyl-6-fluoro-1H-indazol-7-yl)-2-morpholinopyrimidine-5-carbonitrile] is “+++ (+++ indicates binding activity greater than 85%)”.
The entry for `C=CC(=O)N1CC2(CCN(c3nc(N4CCOCC4)nc(-c4c(C)ccc5[nH]ncc45)c3OC)C2)C1` [Compound I-121, 1-(6-(5-methoxy-6-(5-methyl-1H-indazol-4-yl)-2-morpholinopyrimidin-4-yl)-2,6-diazaspiro[3.4]octan-2-yl)prop-2-en-1-one] is “++ (++ indicates binding activity from 50 to 85%)”; for `C=CC(=O)N1CC2(CCN(c3nc(N4CCCC(O)C4)nc(-c4c(C)ccc5[nH]ncc45)c3C#N)C2)C1` (stereo not drawn) [Compound I-122, 4-(2-acryloyl-2,6-diazaspiro[3.4]octan-6-yl)-2-(3-hydroxypiperidin-1-yl)-6-(5-methyl-1H-indazol-4-yl)pyrimidine-5-carbonitrile] it is “++ (++ indicates binding activity from 50 to 85%)”.
Regarding `C=CC(=O)N1CC2(CCN(c3nc(OCc4ccccn4)nc(-c4c(F)ccc5cnn(C)c45)c3C#N)C2)C1` [Compound I-123, 4-(2-acryloyl-2,6-diazaspiro[3.4]octan-6-yl)-6-(6-fluoro-1-methyl-1H-indazol-7-yl)-2-(pyridin-2-ylmethoxy)pyrimidine-5-carbonitrile], the Binding % entry is “+ (+ indicates binding activity greater than 0% and up to 50%)”.
As for `C=CC(=O)N1CC2(CCN(c3nc(OC[C@@H]4CCCN4C)nc(-c4c(F)ccc5cnn(C6CC6)c45)c3C#N)C2)C1` [Compound I-124, 4-(2-acryloyl-2,6-diazaspiro[3.4]octan-6-yl)-6-(1-cyclopropyl-6-fluoro-1H-indazol-7-yl)-2-(((S)-1-methylpyrrolidin-2-yl)methoxy)pyrimidine-5-carbonitrile], the entry is “+ (+ indicates binding activity greater than 0% and up to 50%)”; as for `C=CC(=O)N1CC2(CCN(c3nc(OCC(=O)N4CCCC4)nc(-c4c(C)ccc5[nH]ncc45)c3C#N)C2)C1` [Compound I-127, 4-(2-acryloyl-2,6-diazaspiro[3.4]octan-6-yl)-6-(5-methyl-1H-indazol-4-yl)-2-(2-oxo-2-(pyrrolidin-1-yl)ethoxy)pyrimidine-5-carbonitrile], “+ (+ indicates binding activity greater than 0% and up to 50%)”.
The entry for `C=CC(=O)N1CC2(CC(=O)N(c3nc(N4CCOCC4)nc(-c4c(C)ccc5[nH]ncc45)c3C#N)C2)C1` [Compound I-130, 4-(2-acryloyl-7-oxo-2,6-diazaspiro[3.4]octan-6-yl)-6-(5-methyl-1H-indazol-4-yl)-2-morpholinopyrimidine-5-carbonitrile] is “++ (++ indicates binding activity from 50 to 85%)”; for `C=CC(=O)N1CC2(CCN(c3nc(-c4c(C)ccc5[nH]ncc45)ncc3C#N)C2)C1` [Compound I-141, 4-(2-acryloyl-2,6-diazaspiro[3.4]octan-6-yl)-2-(5-methyl-1H-indazol-4-yl)pyrimidine-5-carbonitrile] it is “+ (+ indicates binding activity greater than 0% and up to 50%)”.
In the case of `C=CC(=O)N1CC2(CCN(c3nc(-c4c(C)ccc5[nH]ncc45)c(C#N)c(N4CCOCC4)n3)C2)C1` [Compound I-142, 2-(2-acryloyl-2,6-diazaspiro[3.4]octan-6-yl)-4-(5-methyl-1H-indazol-4-yl)-6-morpholinopyrimidine-5-carbonitrile], the Binding % entry was “+ (+ indicates binding activity greater than 0% and up to 50%)”.
The entry for `C=CC(=O)N1CC2(CCN(c3nc(-c4c(C)ccc5[nH]ncc45)cc(N4CC(N(C)C)C4)n3)C2)C1` [Compound I-143, 1-(6-(4-(3-(dimethylamino)azeti-din-1-yl)-6-(5-methyl-1H-indazol-4-yl)pyrimidin-2-yl)-2,6-diazaspiro[3.4]octan-2-yl)prop-2-en-1-one] is “+ (+ indicates binding activity greater than 0% and up to 50%)”.
In the case of `C=CC(=O)N1CC2(CCN(c3nc(-c4c(C)ccc5[nH]ncc45)cc(N4CCOCC4)n3)C2)C1` [Compound I-144, 1-(6-(4-(5-methyl-1H-indazol-4-yl)-6-morpholinopyrimidin-2-yl)-2,6-diazaspiro[3.4]octan-2-yl)prop-2-en-1-one], the Binding % entry is “+ (+ indicates binding activity greater than 0% and up to 50%)”.

The record behind these values is US12134620B2 (ARAXES PHARMA LLC, priority 2018, dated 2024).
